Measurements reported in patent publication US11214594B2, “Antimicrobial peptide having synergistic antibacterial effect with antibiotics on multidrug resistant bacteria, and use thereof” (priority 2016, dated 2022).
In brackets after ≈: the same amount, converted by molar mass. Like-named read-outs stand apart in the source and are kept apart here. Where a SMILES comes first, the peptide text is derived from it. [ ]: non-standard residue; d: D form.

Columns and labels:
[1] = system: E. coli; assay: microbe, parasite or virus in culture; assay type: cell-based, Escherichia coli; conditions: 16 h
Summary of the method: (§1)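 Peptides were serially diluted twofold in Mueller-Hinton medium and combined 1:1 with bacterial suspensions prepared at 2×10^6 CFU. Readout was the minimal inhibitory concentration, i.e. the lowest concentration with no growth.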

[2] = system: MDREC 1229; assay: microbe, parasite or virus in culture; assay type: cell-based, Escherichia coli
Summary of the method: as §1

[3] = system: S. aureus; assay: microbe, parasite or virus in culture; assay type: cell-based, Staphylococcus aureus
Summary of the method: as §1

[4] = system: A. baumannii; assay: microbe, parasite or virus in culture; assay type: cell-based, Acinetobacter baumannii
Summary of the method: as §1

[5] = system: MDRAB 12035; assay: microbe, parasite or virus in culture; assay type: cell-based, Acinetobacter baumannii
Summary of the method: as §1

[6] = system: P. aeruginosa; assay: microbe, parasite or virus in culture; assay type: cell-based, Pseudomonas aeruginosa
Summary of the method: as §1

[7] = system: E. coli; assay type: cell-based, Escherichia coli; conditions: E. coli
Summary of the method: (§2)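 Broth microdilution in MH medium; strains were diluted to 2×10^6 CFU per ml before plating. Peptide was serially diluted stepwise at 2:1 starting from its MIC, and MH-diluted antibiotic was then added to determine MIC. The reversed arrangement was also tested.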

[8] = system: MDREC 1229; assay type: cell-based, Escherichia coli
Summary of the method: as §2

[9] = system: S. epidermidis; assay: microbe, parasite or virus in culture; assay type: cell-based, Staphylococcus epidermidis
Summary of the method: as §1

[10] = system: A. baumannii; assay: MIC of antimicrobial peptide during combined treatment with antibiotic; assay type: cell-based, Acinetobacter baumannii
Summary of the method: as §2

[11] = system: MDRAB 12035; assay: as above; assay type: cell-based, Acinetobacter baumannii
Summary of the method: as §2

[12] = system: B. subtilis; assay: microbe, parasite or virus in culture; assay type: cell-based, Bacillus subtilis
Summary of the method: as §1

[13] = system: MDRST 8009; assay type: cell-based, Salmonella typhimurium; conditions: agent alone
Summary of the method: as §1

[14] = system: E. coli; assay: MIC of antibiotic during combined treatment with antimicrobial peptide; assay type: cell-based, Escherichia coli; conditions: for Antibiotic MIC, Erythromycin / Antibiotic MIC, Linezolid / Antibiotic MIC, Vancomycin: E. coli
Summary of the method: (§3)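 First, antibiotic solution is diluted with MH medium; next, the dilution is dispensed into wells containing peptide; finally, the orientation is swapped and MIC of each mixture determined.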

[15] = system: A. baumannii; assay: as above; assay type: cell-based, Acinetobacter baumannii; conditions: for Antibiotic MIC, Erythromycin / Antibiotic MIC, Linezolid / Antibiotic MIC, Vancomycin: A. baumannii
Summary of the method: as §3

[16] = linezolid 64 μg/ml (Conc./MIC 1/8)
[17] = linezolid 512 μg/ml (Conc./MIC 1)
[18] = vancomycin 512 μg/ml (Conc./MIC 1/2)
[19] = vancomycin 1024 μg/ml (Conc./MIC 1)
[20] = erythromycin 4 μg/ml (Conc./MIC 1/8)
[21] = erythromycin 8 μg/ml (Conc./MIC 1/4)
[22] = erythromycin 16 μg/ml (Conc./MIC 1/2)
[23] = erythromycin 32 μg/ml (Conc./MIC 1)
[24] = combined with peptide at 1 μg/ml
[25] = combined with peptide at 2 μg/ml
[26] = combined with peptide at 4 μg/ml
[27] = combined with peptide at 6 μg/ml
[28] = combined with peptide at 8 μg/ml
[29] = combined with peptide at 16 μg/ml
[30] = combined with peptide at 32 μg/ml
[31] = combined with peptide at 64 μg/ml

Structure (SMILES): CC[C@H](C)[C@H](NC(=O)[C@H](CCCCN)NC(=O)[C@H](Cc1c[nH]c2ccccc12)NC(=O)[C@@H](N)CCCNC(=N)N)C(=O)N[C@@H](Cc1ccccc1)C(=O)N[C@@H](CCCCN)C(=O)N[C@@H](CCCCN)C(=O)N[C@H](C(=O)N[C@H](CCCCN)C(=O)N[C@@H](CCCCN)C(=O)N[C@@H](CC(C)C)C(=O)N[C@@H](CC(C)C)C(=O)N[C@@H](Cc1c[nH]cn1)C(=O)N[C@@H](CCCCN)C(=O)N[C@@H](Cc1ccccc1)C(=O)N[C@@H](CCCCN)C(=O)N[C@@H](CCCCN)C(=O)N[C@@H](Cc1ccccc1)C(N)=O)[C@@H](C)CC [PapMA-17, RWK IFK KIk KLL HKF KKF-NH2] (H-RWKIFKKI[dK]KLLHKFKKF-NH2; N-terminus assumed)
- Minimal inhibitory concentration MIC [1]: 16 µg/mL (≈ 6.62 µM)
- Minimal inhibitory concentration MIC [2]: 16 µg/mL (≈ 6.62 µM)
- Peptide MIC, peptide alone [2]: 16 µg/mL
- Minimal inhibitory concentration MIC [3]: >128 µg/mL
- Minimal inhibitory concentration MIC [4]: 32 µg/mL (≈ 13.2 µM)
- Peptide MIC, peptide alone [4]: 32 µg/mL
- Antibacterial activity relative to PapMA-1 ([4]; A. baumannii and S. typhimurium): at least twice as high
- Minimal inhibitory concentration MIC [5]: 32 µg/mL (≈ 13.2 µM)
- Peptide MIC, peptide alone [5]: 32 µg/mL
- Minimal inhibitory concentration MIC [6]: 16 µg/mL (≈ 6.62 µM)
- Peptide MIC ([7]; with Erythromycin […] (Conc./MIC 1)): 0 µg/mL
- Peptide MIC ([7]; with Linezolid […] (Conc./MIC 1)): 0 µg/mL
- Peptide MIC ([7]; with Vancomycin 1024 μg/ml (Conc./MIC 1)): 0 µg/mL
- Peptide MIC during treatment with antibiotic ([8]; erythromycin 32 μg/ml (Conc./MIC 1/8)): 2 µg/mL
- Peptide MIC during treatment with antibiotic ([8]; erythromycin 64 μg/ml (Conc./MIC 1/4)): 2 µg/mL
- Peptide MIC during treatment with antibiotic ([8]; erythromycin […] (Conc./MIC 1)): 0 µg/mL
- Peptide MIC during treatment with antibiotic ([8]; erythromycin […] (Conc./MIC 1/2)): 2 µg/mL
- Peptide MIC during treatment with antibiotic [8, 16]: 4 µg/mL
- Peptide MIC during treatment with antibiotic [8, 17]: 0 µg/mL
- Peptide MIC during treatment with antibiotic ([8]; linezolid […] (Conc./MIC 1/2)): 1 µg/mL
- Peptide MIC during treatment with antibiotic ([8]; linezolid […] (Conc./MIC 1/4)): 4 µg/mL
- Peptide MIC during treatment with antibiotic [8, 18]: 2 µg/mL
- Peptide MIC during treatment with antibiotic [8, 19]: 1 µg/mL
- Peptide MIC during treatment with antibiotic ([8]; vancomycin […] (Conc./MIC 1/4)): 4 µg/mL
- Peptide MIC during treatment with antibiotic ([8]; vancomycin […] (Conc./MIC 1/8)): 8 µg/mL
- Minimal inhibitory concentration MIC [9]: >128 µg/mL
- Peptide MIC during treatment with antibiotic [10, 20]: 4 µg/mL
- Peptide MIC during treatment with antibiotic [10, 21]: 4 µg/mL
- Peptide MIC during treatment with antibiotic [10, 22]: 2 µg/mL
- Peptide MIC during treatment with antibiotic [10, 23]: 0 µg/mL
- Peptide MIC during treatment with antibiotic ([10]; linezolid 32 μg/ml (Conc./MIC 1/8)): 4 µg/mL
- Peptide MIC during treatment with antibiotic ([10]; linezolid 64 μg/ml (Conc./MIC 1/4)): 2 µg/mL
- Peptide MIC during treatment with antibiotic ([10]; linezolid […] (Conc./MIC 1)): 0 µg/mL
- Peptide MIC during treatment with antibiotic ([10]; linezolid […] (Conc./MIC 1/2)): 2 µg/mL
- Peptide MIC during treatment with antibiotic [10, 18]: 0.25 µg/mL
- Peptide MIC during treatment with antibiotic [10, 19]: 0 µg/mL
- Peptide MIC during treatment with antibiotic ([10]; vancomycin […] (Conc./MIC 1/4)): 0.5 µg/mL
- Peptide MIC during treatment with antibiotic ([10]; vancomycin […] (Conc./MIC 1/8)): 4 µg/mL
- Peptide MIC during treatment with erythromycin [11, 20]: 4 µg/mL
- Peptide MIC during treatment with erythromycin [11, 21]: 4 µg/mL
- Peptide MIC during treatment with erythromycin [11, 22]: 2 µg/mL
- Peptide MIC during treatment with erythromycin [11, 23]: 0 µg/mL
- Peptide MIC during treatment with linezolid [11, 16]: 4 µg/mL
- Peptide MIC during treatment with linezolid [11, 17]: 0 µg/mL
- Peptide MIC during treatment with linezolid ([11]; linezolid […] (Conc./MIC 1/2)): 1 µg/mL
- Peptide MIC during treatment with linezolid ([11]; linezolid […] (Conc./MIC 1/4)): 2 µg/mL
- Peptide MIC during treatment with vancomycin [11, 18]: 2 µg/mL
- Peptide MIC during treatment with vancomycin [11, 19]: 1 µg/mL
- Peptide MIC during treatment with vancomycin ([11]; vancomycin […] (Conc./MIC 1/4)): 4 µg/mL
- Peptide MIC during treatment with vancomycin ([11]; vancomycin […] (Conc./MIC 1/8)): 4 µg/mL
- Minimal inhibitory concentration MIC [12]: >128 µg/mL
- Minimal inhibitory concentration MIC [13]: 64 µg/mL (≈ 26.5 µM)
- Synergistic effect of antibacterial activity with existing antibiotics compared with PapMA-1 ([14]; E. coli and MDREC1229): higher level than the PapMA-1 peptide
- Antibiotic MIC, Erythromycin ([14]; erythromycin combined with peptide at 1 μg/ml): 128 µg/mL
- Antibiotic MIC, Erythromycin ([14]; erythromycin combined with peptide at 2 μg/ml): 16 µg/mL
- Antibiotic MIC, Erythromycin ([14]; erythromycin combined with peptide at 4 μg/ml): 8 µg/mL
- Antibiotic MIC, Erythromycin ([14]; erythromycin combined with peptide at 6 μg/ml): 2 µg/mL
- Antibiotic MIC, Erythromycin ([14]; erythromycin combined with peptide at 8 μg/ml): 1 µg/mL
- Antibiotic MIC, Erythromycin ([14]; erythromycin combined with peptide at 16 μg/ml): 0 µg/mL
- Antibiotic MIC, Erythromycin ([14]; erythromycin combined with peptide at 32 μg/ml): 0 µg/mL
- Antibiotic MIC, Erythromycin ([14]; erythromycin combined with peptide at 64 μg/ml): 0 µg/mL
- Antibiotic MIC, Linezolid ([14]; linezolid combined with peptide at 1 μg/ml): >128 µg/mL
- Antibiotic MIC, Linezolid ([14]; linezolid combined with peptide at 2 μg/ml): >128 µg/mL
- Antibiotic MIC, Linezolid ([14]; linezolid combined with peptide at 4 μg/ml): 32 µg/mL
- Antibiotic MIC, Linezolid ([14]; linezolid combined with peptide at 6 μg/ml): 16 µg/mL
- Antibiotic MIC, Linezolid ([14]; linezolid combined with peptide at 8 μg/ml): 8 µg/mL
- Antibiotic MIC, Linezolid ([14]; linezolid combined with peptide at 16 μg/ml): 0 µg/mL
- Antibiotic MIC, Linezolid ([14]; linezolid combined with peptide at 32 μg/ml): 0 µg/mL
- Antibiotic MIC, Linezolid ([14]; linezolid combined with peptide at 64 μg/ml): 0 µg/mL
- Antibiotic MIC, Vancomycin ([14]; vancomycin combined with peptide at 1 μg/ml): >128 µg/mL
- Antibiotic MIC, Vancomycin ([14]; vancomycin combined with peptide at 2 μg/ml): >128 µg/mL
- Antibiotic MIC, Vancomycin ([14]; vancomycin combined with peptide at 4 μg/ml): 128 µg/mL
- Antibiotic MIC, Vancomycin ([14]; vancomycin combined with peptide at 6 μg/ml): 32 µg/mL
- Antibiotic MIC, Vancomycin ([14]; vancomycin combined with peptide at 8 μg/ml): 16 µg/mL
- Antibiotic MIC, Vancomycin ([14]; vancomycin combined with peptide at 16 μg/ml): 0 µg/mL
- Antibiotic MIC, Vancomycin ([14]; vancomycin combined with peptide at 32 μg/ml): 0 µg/mL
- Antibiotic MIC, Vancomycin ([14]; vancomycin combined with peptide at 64 μg/ml): 0 µg/mL
- Synergistic effect of antibacterial activity with existing antibiotics compared with PapMA-1 ([15]; A. baumannii and MDRAB 12035): level similar to that of PapMA-1 peptide
- Antibiotic MIC, Erythromycin [15, 24]: 32 µg/mL
- Antibiotic MIC, Linezolid [15, 24]: >128 µg/mL
- Antibiotic MIC, Vancomycin [15, 24]: >128 µg/mL
- Antibiotic MIC, Erythromycin [15, 25]: 16 µg/mL
- Antibiotic MIC, Linezolid [15, 25]: 64 µg/mL
- Antibiotic MIC, Vancomycin [15, 25]: >128 µg/mL
- Antibiotic MIC, Erythromycin [15, 26]: 8 µg/mL
- Antibiotic MIC, Linezolid [15, 26]: 32 µg/mL
- Antibiotic MIC, Vancomycin [15, 26]: 64 µg/mL
- Antibiotic MIC, Erythromycin [15, 27]: 2 µg/mL
- Antibiotic MIC, Linezolid [15, 27]: 32 µg/mL
- Antibiotic MIC, Vancomycin [15, 27]: 32 µg/mL
- Antibiotic MIC, Erythromycin [15, 28]: 0.25 µg/mL
- Antibiotic MIC, Linezolid [15, 28]: 8 µg/mL
- Antibiotic MIC, Vancomycin [15, 28]: 16 µg/mL
- Antibiotic MIC, Erythromycin [15, 29]: 0.125 µg/mL
- Antibiotic MIC, Linezolid [15, 29]: 2 µg/mL
- Antibiotic MIC, Vancomycin [15, 29]: 4 µg/mL
- Antibiotic MIC, Erythromycin [15, 30]: 0 µg/mL
- Antibiotic MIC, Linezolid [15, 30]: 0 µg/mL
- Antibiotic MIC, Vancomycin [15, 30]: 0 µg/mL
- Antibiotic MIC, Erythromycin [15, 31]: 0 µg/mL
- Antibiotic MIC, Linezolid [15, 31]: 0 µg/mL
- Antibiotic MIC, Vancomycin [15, 31]: 0 µg/mL
